Values of other authors, collected in patent US20210386367A1, “DEVICES AND SYSTEMS FOR GASTROINTESTINAL MICROBIOME DETECTION AND MANIPULATION” (Progenity, Inc., priority 2018, published 2021).
Values after ≈ are worked out from the molar mass of the structure shown. Where two headings read alike, the source gives them in different places.

Tests used:
Conditions in all cases: cited from earlier work
Staphylococcus aureus [1] = tested on: Staphylococcus aureus
Lactobacillus spp. = tested on: Lactobacillus spp.
Klebsiella pneumoniae = tested on: Klebsiella pneumoniae
Bacteroides fragilis [2] = tested on: Bacteroides fragilis
Bacteroides spp. = tested on: Bacteroides spp.
Fusobacterium nucleatum = tested on: Fusobacterium nucleatum
Prevotella spp. = tested on: Prevotella spp.
Clostridium spp. = tested on: Clostridium spp.
[3] = tested on: E. coli ATCC 35218 (TEM-1 β-lactamase producer)
Staphylococcus aureus [4] = tested on: Staphylococcus aureus; remark: listed apart in the source
XDR Enterobacteriaceae = tested on: XDR Enterobacteriaceae
Enterobacter spp. = tested on: Enterobacter spp.
Citrobacter spp. = tested on: Citrobacter spp.
[5] = tested on: Bacteroides thetaiotaomicron
Fusobacterium spp = tested on: Fusobacterium spp
Prevotella melanogenica = tested on: Prevotella melanogenica
Veillonella = tested on: Veillonella
Staphylococcus aureus [6] = tested on: Staphylococcus aureus; remark: listed apart in the source
Enterococcus faecalis = tested on: Enterococcus faecalis
Enterococcus spp. = tested on: Enterococcus spp.
Enterobacteriaceae = tested on: Enterobacteriaceae
Escherichia coli = tested on: Escherichia coli
Bacteroides fragilis [7] = tested on: Bacteroides fragilis; remark: listed apart in the source
Bacteroides ovatus = tested on: Bacteroides ovatus

CO/N=C(\C(=O)N[C@@H]1C(=O)N2C(C(=O)O)=C(CSc3nc(=O)c(=O)[nH]n3C)CS[C@H]12)c1csc(N)n1 [ceftriaxone]
% S (Staphylococcus aureus [1]): 54.5% | MIC50 (Staphylococcus aureus [1]): 4 µg/mL (≈ 7.21 µM) | MIC90 (Staphylococcus aureus [1]): >8 µg/mL | MIC50 (Lactobacillus spp.): 4 µg/mL (≈ 7.21 µM) | MIC90 (Lactobacillus spp.): 8 µg/mL (≈ 14.4 µM) | MIC range (Lactobacillus spp.): 0.12 to 64 µg/mL | % S (Klebsiella pneumoniae): 67% | MIC50 (Klebsiella pneumoniae): ≤0.25 µg/mL | MIC90 (Klebsiella pneumoniae): >64 µg/mL | % S (Bacteroides fragilis [2]): 15% | MIC50 (Bacteroides fragilis [2]): 32 µg/mL (≈ 57.7 µM) | MIC90 (Bacteroides fragilis [2]): >32 µg/mL | MIC50 (Bacteroides spp.): >128 µg/mL | MIC90 (Bacteroides spp.): >128 µg/mL | % S (Fusobacterium nucleatum): 100% | MIC50 (Fusobacterium nucleatum): 0.125 µg/mL (≈ 0.225 µM) | MIC90 (Fusobacterium nucleatum): 0.5 µg/mL (≈ 0.902 µM) | MIC range (Fusobacterium nucleatum): 0.015 to 1 µg/mL | % S (Prevotella spp.): 90% | MIC50 (Prevotella spp.): 1 µg/mL (≈ 1.8 µM) | MIC90 (Prevotella spp.): 8 µg/mL (≈ 14.4 µM) | MIC range (Prevotella spp.): ≤0.008 to 64 µg/mL | % S (Clostridium spp.): 75% | MIC50 (Clostridium spp.): 2 µg/mL (≈ 3.61 µM)

C[C@@H](O)[C@H]1C(=O)N2C(C(=O)O)=C(S[C@@H]3CN[C@H](C(=O)N(C)C)C3)[C@H](C)[C@H]12 [meropenem]
CLSI QC range (MIC) [3]: (0.008-0.06) μg/mL | MIC50 (Staphylococcus aureus [4]): ≤0.12 µg/mL | MIC90 (Staphylococcus aureus [4]): 4 µg/mL (≈ 10.4 µM) | % S (XDR Enterobacteriaceae): 20.5% | MIC50 (XDR Enterobacteriaceae): 8 µg/mL (≈ 20.9 µM) | MIC90 (XDR Enterobacteriaceae): >8 µg/mL | % S (Enterobacter spp.): 57.5% | MIC50 (Enterobacter spp.): 0.5 µg/mL (≈ 1.3 µM) | MIC90 (Enterobacter spp.): 64 µg/mL (≈ 167 µM) | % S (Citrobacter spp.): 99% | MIC50 (Citrobacter spp.): 0.03 µg/mL (≈ 0.0782 µM) | MIC90 (Citrobacter spp.): 0.06 µg/mL (≈ 0.156 µM) | % S [5]: 100% | MIC50 [5]: 0.25 µg/mL (≈ 0.652 µM) | MIC90 [5]: 0.5 µg/mL (≈ 1.3 µM) | % S (Fusobacterium spp): 100% | MIC50 (Fusobacterium spp): 0.125 µg/mL (≈ 0.326 µM) | MIC90 (Fusobacterium spp): 0.25 µg/mL (≈ 0.652 µM) | MIC range (Fusobacterium spp): ≤0.03 to 0.5 µg/mL | % S (Prevotella melanogenica): 100% | MIC50 (Prevotella melanogenica): 0.06 µg/mL (≈ 0.156 µM) | MIC90 (Prevotella melanogenica): 0.25 µg/mL (≈ 0.652 µM) | MIC range (Prevotella melanogenica): ≤0.03 to 0.25 µg/mL | % S (Veillonella): 100% | MIC50 (Veillonella): ≤0.03 µg/mL | MIC90 (Veillonella): ≤0.03 µg/mL | MIC range (Veillonella): ≤0.03 to 0.25 µg/mL

CO[C@H]1/C=C/O[C@@]2(C)Oc3c(C)c(O)c4c(O)c(c5c(nc6cc(C)ccn65)c4c3C2=O)NC(=O)/C(C)=C\C=C\[C@H](C)[C@H](O)[C@@H](C)[C@@H](O)[C@@H](C)[C@H](OC(C)=O)[C@@H]1C [rifaximin]
% S (Staphylococcus aureus [6]): 100% | MIC50 (Staphylococcus aureus [6]): ≤0.25 µg/mL | MIC90 (Staphylococcus aureus [6]): ≤0.25 µg/mL | MIC range (Staphylococcus aureus [6]): ≤0.25 µg/mL | % S (Enterococcus faecalis): 100% | MIC50 (Enterococcus faecalis): 4 µg/mL (≈ 5.09 µM) | MIC90 (Enterococcus faecalis): 16 µg/mL (≈ 20.4 µM) | MIC range (Enterococcus faecalis): ≤0.25 to 16 µg/mL | MIC50 (Enterococcus spp.): 4 µg/mL (≈ 5.09 µM) | MIC90 (Enterococcus spp.): 32 µg/mL (≈ 40.7 µM) | MIC range (Enterococcus spp.): ≤0.06 to 32 µg/mL | MIC50 (Enterobacteriaceae): 32 µg/mL (≈ 40.7 µM) | MIC90 (Enterobacteriaceae): >128 µg/mL | % S (Escherichia coli): 85.4% | MIC50 (Escherichia coli): 16 µg/mL (≈ 20.4 µM) | MIC90 (Escherichia coli): 64 µg/mL (≈ 81.4 µM) | MIC range (Escherichia coli): 4 to 64 µg/mL | MIC50 (Bacteroides fragilis [7]): 0.25 µg/mL (≈ 0.318 µM) | MIC90 (Bacteroides fragilis [7]): >1024 µg/mL | MIC50 (Bacteroides ovatus): 1 µg/mL (≈ 1.27 µM) | MIC90 (Bacteroides ovatus): 1 µg/mL (≈ 1.27 µM)
